Active and inactive are the calls of the source.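 How the source made its calls: active means compounds whose fitted half-maximal concentration in the cell-protection dose series is at or below a set limit; inactive means the rest.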
Each compound was assayed on H9c2 cardiomyocytes, 2-deoxyglucose stress, ATP luminescence, 2 h (assay: protection of cardiomyocytes from 2-deoxyglucose injury, dose response, cell-based, 2-deoxyglucose stress, uHTS hits (AID 588780)).
`COC(=O)[C@@]12CCCCN1[C@H](c1ccc(-c3cc(C(C)=O)cs3)cc1)[C@H]1C(=O)N(C)C(=O)[C@H]12` was tested, and the IC50 was > 79 µM (inactive). For `CCCCn1c(NC(=O)c2ccccc2)nc2ccccc21`, the IC50 was > 79 µM (inactive). For `CC1Cc2ccccc2N1C(=O)Cn1nc(C(=O)O)c2ccccc2c1=O` (stereo not drawn), the IC50 was > 79 µM (inactive). For `CCOC(=O)C1=C(COC(=O)c2ccc([N+](=O)[O-])o2)NC(=O)NC1C` (stereo not drawn), the IC50 was > 79 µM (inactive). For `C[C@@H](NC(=O)c1nc[nH]c1C(=O)NCC(=O)OCc1ccccc1)c1ccccc1`, the IC50 was > 79 µM (inactive). With `N#CCCN(C(=O)COC(=O)CCc1nc2ccccc2c(=O)[nH]1)c1ccccc1F` the IC50 was > 79 µM (inactive). In the case of `Cc1c(C(=O)Nc2ccc3nc(N4CCOCC4)sc3c2)oc2ccccc12`, the IC50 is reported as > 79 µM (inactive). For `CSCCC(NS(=O)(=O)c1ccccc1)C(=O)OCc1cc(=O)oc2cc(O)ccc12` (stereo not drawn), the IC50 was > 79 µM (inactive). In the case of `O=C(Cc1n[nH]c(=O)c2ccccc12)OCC(=O)c1ccccc1`, the IC50 is reported as > 79 µM (inactive). For `O=C(CN(C(=O)Cn1nnc(-c2cccs2)n1)c1cnc2ccccc2c1)NCC1CCCO1` (stereo not drawn), the IC50 was > 79 µM (inactive). With `O=C(NCC(=O)N(Cc1cccs1)C(C(=O)NC1CCCC1)c1ccco1)c1cccs1` (stereo not drawn) the IC50 was 13.3 µM. `COc1cc(-c2nnc(-c3cc(OC)c(OC)c(OC)c3)o2)cc(OC)c1OC` was tested, and the IC50 was > 79 µM (inactive). For `CCN(C[C@H]1N[C@@](CC)(C(=O)OC)[C@H]2C(=O)N(Cc3ccccc3)C(=O)[C@@H]12)C(=O)c1ccc(C(C)(C)C)cc1`, the IC50 was > 79 µM (inactive). For `CCN(Cc1ccccc1)C(=O)c1cc2c(=O)oc3ccc(C)cc3c2s1`, the IC50 was > 79 µM (inactive). `Cc1cc(C(=O)N/N=C/c2cc(Br)ccc2OC(=O)c2ccccc2Cl)n[nH]1` was tested, and the IC50 was > 79 µM (inactive). With `Cc1nc(NC(=O)c2cc3c(C)nn(-c4ccccc4)c3s2)sc1C(=O)Nc1ccccc1` the IC50 was > 79 µM (inactive). For `N#CC1(NC(=O)COC(=O)Cn2[nH]c(=O)c3ccccc3c2=O)CCCCC1`, the IC50 was > 79 µM (inactive). Compound `CCn1nc(C(=O)OCC(=O)c2c[nH]c3ccccc23)c2ccccc2c1=O` has an IC50 of 11.6 µM. `c1ccc(-c2nc(-n3ccnc3)nc(-n3ccnc3)n2)cc1` was tested, and the IC50 was > 79 µM (inactive). In the case of `COc1cc(OC)c2ccc(=O)oc2c1C(CC(=O)N1CCN(c2ccccc2)CC1)c1ccc2c(c1)OCO2` (stereo not drawn), the IC50 is reported as > 79 µM (inactive). Compound `N#Cc1c(-c2ccco2)cc(-c2cccnc2)nc1N` has an IC50 of 12.1 µM. `C[C@H]1Cn2cnc(C(=O)N[C@@H](Cc3c[nH]c4ccccc34)C(=O)OC(C)(C)C)c2C(=O)N1` gave an IC50 of 21 µM. With `Cc1cccc(C(=O)N/N=C2\CS(=O)(=O)N(C)c3ccsc32)c1` the IC50 was 6.21 µM. `COCCN1CCN(c2c3c(nc4cc(-c5cccc(F)c5)nn24)CCC3)CC1` was tested, and the IC50 was 60.1 µM (inactive). With `Cc1ccc(OCC(=O)Nc2nc(-c3ccccn3)cs2)c(C)c1` the IC50 was 16.4 µM. `Cn1c(=O)[nH]c(=O)c2c1nc(N(CCO)Cc1ccccc1)n2CCCc1ccccc1` was tested, and the IC50 was > 79 µM (inactive). Compound `CC(=O)c1ccc(N2CCN(C(=O)C3CCCN(c4ncnc5c4nc4n5CCCCC4)C3)CC2)cc1` (stereo not drawn) has an IC50 of 17.5 µM. With `COc1ccc(C=CC(=O)c2ccc3cc(OC)c(OC)cc3c2)cc1OC` the IC50 was > 79 µM (inactive). For `CCc1cc2cccc(C)c2nc1SCC(=O)N1CCN(C(=O)c2ccco2)CC1`, the IC50 was > 79 µM (inactive). With `COc1ccc(C(C(=O)NC2CCCCC2)N(Cc2cccs2)C(=O)Cc2c[nH]c3ccccc23)cc1OC` (stereo not drawn) the IC50 was 12.5 µM. In the case of `CC(C)Cn1c(N)c(C(=O)COC(=O)CCc2nc3ccccc3c(=O)[nH]2)c(=O)n(C)c1=O`, the IC50 is reported as > 79 µM (inactive). `O=c1[nH]nc(Cc2ccccn2)c2ccccc12` was tested, and the IC50 was > 79 µM (inactive). For `CCOc1cc(/C=C(\C#N)C(=O)Nc2ccc(S(N)(=O)=O)cc2)ccc1OCCN1CCOCC1`, the IC50 was > 79 µM (inactive). `O=C(N/N=C/c1ccccn1)c1cccc([N+](=O)[O-])c1` was tested, and the IC50 was > 79 µM (inactive). With `O=c1[nH]c2cccc(Cl)c2c2ccccc12` the IC50 was > 79 µM (inactive). For `COc1ccc2cc3cc(C(=O)NCCc4ccc(OC)c(OC)c4)oc3nc2c1`, the IC50 was 7.71 µM. In the case of `Cn1c2c(c(=O)n(C)c1=O)C(c1cccc([N+](=O)[O-])c1)Nc1ccccc1O2` (stereo not drawn), the IC50 is reported as > 79 µM (inactive). With `CC(=O)Nc1cc(-c2ccc(C(=O)NC3CC3)cc2)cn2c(-c3cccc(C(C)=O)c3)cnc12` the IC50 was > 79 µM (inactive). For `CCN(CC)C(=O)c1[nH]cnc1C(=O)NCC(=O)OCc1ccccc1`, the IC50 was > 79 µM (inactive). In the case of `NC(=O)c1nsc(C(=O)N(c2ccccc2F)C(C(=O)NCc2ccccc2)c2ccc(O)cc2)c1N` (stereo not drawn), the IC50 is reported as > 79 µM (inactive). `COc1ccc(OCC(O)Cn2c(Br)nc3c2c(=O)[nH]c(=O)n3C)cc1` (stereo not drawn) was tested, and the IC50 was 38.7 µM (inactive). `CCn1c(=O)c(C(=O)NC(C)c2ccccc2)c(O)c2ccccc21` (stereo not drawn) was tested, and the IC50 was > 79 µM (inactive). With `c1ccc(-c2cn3c(n2)CCc2ccc4cccnc4c2-3)cc1` the IC50 was > 79 µM (inactive). With `O=C(O)c1nn(CC(=O)N2CCN(c3ccccc3)CC2)c(=O)c2ccccc12` the IC50 was > 79 µM (inactive). Compound `CCOC(=O)C1=C(C)NC(C)=C(C(=O)OCC)C1C(=O)OCC(=O)NC(C)C` has an IC50 of 19.7 µM. `CC(C)c1ccccc1NC(=O)COC(=O)c1c2c(nc3ccccc13)CCN(Cc1ccccc1)C2` was tested, and the IC50 was > 79 µM (inactive). Work on `CC(=O)c1cccc(-c2cnc3c(NC=O)cc(-c4cccc(C(=O)N(C)C)c4)cn23)c1` yielded an IC50 of 19.5 µM. Compound `COc1ccc(C(=O)Nc2cc(C)nn2-c2nc3ccccc3[nH]2)c(OC)c1` has an IC50 of 12.3 µM. `COc1cccc(C(=O)Nc2cc(C)c3c(=O)oc4ccccc4c3n2)c1` was tested, and the IC50 was > 79 µM (inactive). In the case of `COc1ccc(C2/C=C\CN(S(=O)(=O)c3cccc4cccnc34)CC(=O)N2Cc2ccc(F)cc2)cc1` (stereo not drawn), the IC50 is reported as > 79 µM (inactive). In the case of `Cn1ncc(Cl)c1C(=O)N/N=C/c1ccccn1`, the IC50 is reported as > 79 µM (inactive). `COc1cc2ccnc(C=O)c2cc1OC` was tested, and the IC50 was > 79 µM (inactive). With `Cn1c(C(=O)Nc2ccc3c(c2)OCCO3)cc2c(=O)n(C)c3ccccc3c21` the IC50 was > 79 µM (inactive). `COc1ccccc1-c1cc(NC=O)c2ncc(-c3cccc(C(C)=O)c3)n2c1` was tested, and the IC50 was > 79 µM (inactive). In the case of `O=C(NO)c1ccc(C(=O)N(C2CCCCC2)C2CCCCC2)cc1`, the IC50 is reported as > 79 µM (inactive). Work on `COc1ccc(/C=N/NC(=O)c2sccc2OCc2ccc(F)cc2)cc1OC` yielded an IC50 of 15.4 µM. `CC1Nc2ncnc(N3CCN(c4ccccc4)CC3)c2N(Cc2ccc(Br)cc2)C1=O` (stereo not drawn) was tested, and the IC50 was > 79 µM (inactive). `O=C(C[C@@H]1C/C=C/CC[C@@H](Cc2ccc(F)cc2)C(=O)O[C@@H](c2ccccc2)CNC1=O)NCCO` showed an IC50 of 15.1 µM. With `COc1cccc(-c2nn3c(-c4ccco4)nnc3s2)c1` the IC50 was > 79 µM (inactive). `CCCNC(=O)c1ccc2c(=O)c(O)c(-c3ccc(C)cc3)[nH]c2c1` was tested, and the IC50 was > 79 µM (inactive). For `O=C(Nc1ccc2oc(-c3ccccc3F)nc2c1)c1ccc([N+](=O)[O-])o1`, the IC50 was > 79 µM (inactive). `CCCCC(=O)Nc1cc(C)c2c(=O)oc3ccccc3c2n1` was tested, and the IC50 was > 79 µM (inactive). `Cc1ccc(C)c(NC(=O)C(Sc2nc3ccccc3c(=O)n2CC(C)C)c2ccccc2)c1` (stereo not drawn) was tested, and the IC50 was > 79 µM (inactive). With `O=c1[nH]c(N2CCN(c3ccccc3)CC2)nc2c1CCCC2` the IC50 was > 79 µM (inactive). `CCc1nc(N2CCN(C(=O)c3ccco3)CC2)c2oc3ccccc3c2n1` was tested, and the IC50 was > 79 µM (inactive). With `N#C/C(=C\c1cn(-c2ccccc2)nc1-c1cccnc1)c1nnc2n1CCCCC2` the IC50 was 21.7 µM. `CC1(C(=O)Nc2cccc(OC(F)(F)F)c2)Cc2c(-c3ccc(C(N)=O)cc3)ccnc2O1` (stereo not drawn) was tested, and the IC50 was > 79 µM (inactive). For `O=C(CCCSc1nc2sc3c(c2c(=O)[nH]1)CCC3)NCCO`, the IC50 was > 79 µM (inactive). With `O=C(COC(=O)Cc1n[nH]c(=O)c2ccccc12)NNC(=O)c1ccc(Br)cc1` the IC50 was > 79 µM (inactive). With `CN(C)S(=O)(=O)c1ccc2[nH]cc(/C=C/c3nc4ccccc4c(=O)n3-c3ccccc3)c2c1` the IC50 was > 79 µM (inactive). For `COC(=O)c1ccc2c(=O)[nH]c(COC(=O)c3[nH]c(C)c(C(C)=O)c3C)nc2c1`, the IC50 was > 79 µM (inactive). `CC(C)COc1nc2ccccc2c(=O)n1OCC(=O)O` was tested, and the IC50 was > 79 µM (inactive). For `O=C(CCc1nc2ccccc2c(=O)[nH]1)N1CCN(c2ccccc2Cl)CC1`, the IC50 was > 79 µM (inactive). In the case of `COc1cc(-n2c(=O)c3ccccc3n(Cc3cc(=O)n4ccccc4n3)c2=O)cc(OC)c1OC`, the IC50 is reported as > 79 µM (inactive). With `Cc1c(C=O)c2ccccn2c1C(=O)c1ccc(Cl)c([N+](=O)[O-])c1` the IC50 was > 79 µM (inactive). With `CCOc1ccc(N(CC(=O)N/N=C/c2ccccn2)S(=O)(=O)c2ccc(Cl)cc2)cc1` the IC50 was > 79 µM (inactive). `Cc1cc(CNC(=O)COC(=O)Cn2[nH]c(=O)c3ccccc3c2=O)cc(C)c1O` gave an IC50 of 15.4 µM. `O=c1[nH]nc(-c2cccs2)c2ccccc12` gave an IC50 of 5.51 µM. In the case of `Cc1cccc(NC(=O)c2cc(-c3ccco3)nc3ccccc23)n1`, the IC50 is reported as > 79 µM (inactive). `C[C@@H](OC(=O)c1[nH]cnc1C(=O)NCc1ccc(CNC(=O)OC(C)(C)C)cc1)c1ccccc1` was tested, and the IC50 was > 79 µM (inactive). For `O=c1cc(-c2ccc([N+](=O)[O-])cc2)c2ccc(O)cc2o1`, the IC50 was > 79 µM (inactive). In the case of `Cn1c(=O)n(CCc2ccccc2)c(=O)c2c1nc1n2CCN1Cc1ccco1`, the IC50 is reported as 21.6 µM. `Cc1ccc(C=NNc2nc3c([nH]2)c(=O)n(C)c(=O)n3C)cc1` was tested, and the IC50 was 11.8 µM. In the case of `O=C/C(=C\Nc1ccccn1)c1nc2cc(Cl)ccc2o1`, the IC50 is reported as > 79 µM (inactive). In the case of `COC(=O)c1cc(NC(=O)c2cc3ccccc3o2)cc(C(=O)OC)c1`, the IC50 is reported as 20.5 µM. In the case of `COC(=O)c1c(C)[nH]c(O)c1C=Nc1ccc(Oc2ccccc2)cc1`, the IC50 is reported as > 79 µM (inactive). For `O=c1[nH]c2ccccc2c2ccccc12`, the IC50 was > 79 µM (inactive). With `O=C(C[C@H]1C/C=C\CC[C@H](Cc2ccc(F)cc2)C(=O)O[C@H](c2ccccc2)CNC1=O)N[C@H](CO)Cc1ccccc1` the IC50 was > 79 µM (inactive). For `O=C(COC(=O)Cc1n[nH]c(=O)c2ccccc12)Nc1ccc(Cl)cc1F`, the IC50 was > 79 µM (inactive). In the case of `COC(=O)Cc1n[nH]c(=O)c2ccccc12`, the IC50 is reported as > 79 µM (inactive). In the case of `CCOC(=O)c1c(NC(=O)COC(=O)Cc2n[nH]c(=O)c3ccccc23)sc(C(=O)NC)c1C`, the IC50 is reported as > 79 µM (inactive). `Cc1cc(=O)oc2cc(OCC(=O)N3CCN(C(=O)C4COc5ccccc5O4)CC3)c(Cl)cc12` (stereo not drawn) showed an IC50 of 12.7 µM. Compound `O=C(CC(C(=O)c1ccccc1)c1ccccc1)c1ccccc1` (stereo not drawn) has an IC50 of 12.6 µM.

Source: PubChem BioAssay AID588780 (Sanford-Burnham Center for Chemical Genomics, 2011)
